# Source: patent publication US11590129B2, “Combination therapy with an antitumor alkaloid” (PHARMA MAR, S.A., priority 2010, dated 2023)
# Legend:
# [1] = system: U87-MG human glioblastoma cell line; experiment: cells
# [2] = system: SK-MEL-2 human melanoma cell line; experiment: cells
# Description: (§1) a. […] Briefly, cells were harvested and seeded in 96 well microtiter plates at a density of 5,000 cells in 150 μL of culture medium and incubated for 24 hours in drug-free medium before treatment with vehicle alone or test compounds for 72 h.
# (§2) The cytotoxic effect was measured by the MTT reduction assay, in which 3-(4,5-Dimethylthiazol-2-yl)-2,5-diphenyltetrazolium bromide, a tetrazole, which is reduced to purple formazan in the mitochondria of living cells, was used. MTT (50 μL of 1 mg/mL stock solution) was added to the wells and incubated for 8 hours at 37° C. until formazan crystals were formed. After gently removing the culture medium, DMSO was added to dissolve the insoluble purple formazan product into a colored solution. […] Results were expressed as percentage of control cell growth.
# (§3) b. In a second set of assays, A549 human tumor cells were incubated with PM01183 in combination with each of the agents mentioned above.
# (§4) As a visual aid, response values were plotted on a scatter plot with dose ratios given on the x-axis and % response values on the y-axis. […] In cases where response values at the two endpoints were approximately equivalent, points lying above or below this predicted line of additivity could be interpreted as representing antagonistic or synergistic drug interaction, respectively.
# (§5) Additional serial dilutions were prepared in serum-free culture medium to achieve a final 4× concentration. Aliquots of 50 μL of each diluted compound were added per well.
# SK-MEL-2 was the human melanoma cell line selected for this assay.
# [3] = system: IGROV-1 human ovarian adenocarcinoma cell line; experiment: cells
# [4] = system: RXF-393 human kidney carcinoma cell line; experiment: cells
# [5] = system: MDA-MB-231 human breast adenocarcinoma cell line; experiment: cells
# [6] = system: HT-29 human colon adenocarcinoma cell line; experiment: cells
# Outline: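 HT-29 cells (5,000/well) were attached for 24 h, then exposed to vehicle or compounds for 72 h. Viability was read by MTT reduction, with 8 h MTT at 37° C and formazan dissolved in DMSO. Values are % of control cell growth.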
# [7] = system: U-937 human lymphoma cell line; experiment: cells
# Description: (§6) Briefly, cells were seeded in 96 well microtiter plates at a density of 50000 cells per well in 150 μL of culture medium and incubated for 4-6 hours in drug-free medium before treatment with vehicle alone or test compounds for 72 hours.
# (§7) After incubation, the cytotoxic effect was evaluated using a MTT reduction assay. 50 μL of MTT solution (1 mg/mL) were added to the wells and incubated for 15-17 hours at 37° C. until formazan crystals were formed. After gently removing the culture medium, DMSO was added to dissolve the insoluble purple formazan product into a colored solution. […] Results were expressed as percentage of control cell growth. The EC50 values (half-maximal effective concentration) used for the combination studies were calculated using Prism v5.02 software (GraphPad). EC50 was expressed as molar concentration and represented the mean of at least three independent assays.
# (§8) Using these starting concentrations, constant serial dilutions were performed to generate the concentration-response curves for each set of drugs, alone and in combination.
# (§9) Based on this equation, the term “combination index” (CI) is used as a quantitative measure of the degree of drug interactions. […] CI values were calculated by solving the equation for different values of fa (i.e., for different degrees of cell groth inhibition).
# (§10) Data were analyzed using CalcuSyn software (Biosoft, Cambridge, UK). For statistical analysis and graphs Prism software (GraphPad, San Diego, USA) was used. All the results represent the mean of at least three independent experiments.
# as §5
# (§11) In the second set of assays, concentration-response curves for the agents tested, both alone and in two-drug combination, were performed.
# [8] = system: RAMOS human lymphoma cell line; experiment: cells
# Description: as §6, §7, §8, §9, §10, §5, §11
# [9] = system: PANC-1 human pancreatic carcinoma cell line; experiment: cells
# Description: as §1, §2, §3, §4, §5
# PANC-1 was the human pancreatic carcinoma cell line selected for this assay.
# [10] = system: HGC-27 human gastric carcinoma cell line; experiment: cells
# [11] = system: PC-3 human prostate cancer cell line; experiment: cells
# Outline: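 Cells seeded at 5,000/well, grown 24 h drug-free, then exposed to vehicle or test compounds for 72 h. Viability by MTT reduction (8 h, 37 °C), formazan dissolved in DMSO. Values given as percentage of control cell growth.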
# [12] = system: JURKAT human leukemia cell line; experiment: cells
# Description: as §5
# (§12) JURKAT and MOLT-4 were the human leukemia cell lines selected for this assay, which were obtained from the American Type Culture Collection (ATCC).
# as §6, §7
# (§13) b. In a second set of experiments, concentration-response curves for the agents tested, both alone and in two-drug combination, were performed, using the same methodology described in the previous paragraph.
# as §8, §9, §10
# [13] = system: MOLT-4 human leukemia cell line; experiment: cells
# Description: as §5, §12, §6, §7, §13, §8, §9, §10
# [14] = system: A673 human rhabdomyosarcoma cell line; experiment: cells
# Outline: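 A673 cells seeded at 5,000 per well, grown 24 h drug-free, then exposed to compounds for 72 h. Viability by MTT reduction (8 h, 37 °C), formazan dissolved in DMSO. Results expressed as percentage of control cell growth.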
# [15] = system: A549 human lung carcinoma cell line; experiment: MTT cytotoxicity assay in A549 cells: IC50 of single agents and combinations with PM01183; format: cell-based; details: Homo sapiens; A549, 72 hours drug exposure, MTT; read-out: IC50
# Outline: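 A549 cells seeded at 5,000 per well, grown 24 h drug-free, then exposed to vehicle or compounds for 72 h, either singly or combined with PM01183. Combination responses plotted against dose ratio relative to an additivity line.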
# [16] = system: HepG2 human hepatocellular liver carcinoma cell line; experiment: MTT cytotoxicity assay in HepG2 cells: IC50 of single agents and combinations with PM01183; format: cell-based; details: Homo sapiens; HepG2, 72 hours drug exposure, MTT; read-out: IC50
# [17] = system: SW1990 tumors; experiment: Human pancreatic tumor xenografts (SW1990) in athymic nude mice, tumor volume % T/C; format: in vivo
# Description: Female athymic nude mice (Harlan Laboratories Models, S.L. (Barcelona, Spain) were utilized for all experiments. Animals were housed in individually ventilated cages, up to ten per cage in a 12-hour light-dark cycle at 21-23° C. and 40-60% humidity. The mice were allowed free access to irradiated standard rodent diet and sterilized water. Animals were acclimated for at least 5 days prior to tumor implantation with a tumor cell suspension.
# Each animal was subcutaneously implanted on the right flank, using 26G needle and a 1 cc syringe, with 5×10^6 SW1990 cells, from in vitro passage 12, in 0.05 mL suspension of 50% Matrigel and 50% serum free medium, without antibiotics.
# PM01183 was provided in the form of vials of lyophilized PM01183 cake which was reconstituted with water for infusion to a concentration of 0.2 mg/mL. The PM01183 stock solution was further diluted in 5% glucose solution for injection to the dosing formulation concentrations.
# Dose level groups were administered either as single agents or in combination.
# Comparison of the median tumor volume in the treatment groups (T) to the median tumor volume in the control group (T/C×100%) was used for evaluation of the antitumor efficacy.
# [18] = gemcitabine 45.0 mg/kg iv days 0,7,14
# [19] = gemcitabine 90.0 mg/kg iv days 0,7,14
# [20] = gemcitabine 135.0 mg/kg iv days 0,7,14
# [21] = gemcitabine 180.0 mg/kg iv days 0,7,14
structure (smiles),measurement,setting,value
"C/C=C1\NC(=O)[C@H](Cc2ccccc2)NC(=O)[C@@H](C(C)C)NC(=O)[C@@H]([C@@H](C)CC)NC(=O)[C@H](NC(=O)[C@H](NC(=O)[C@H](CCCN)NC(=O)[C@H]2CCCN2C(=O)[C@H](NC(=O)[C@@H](NC(=O)[C@@H](NC(=O)[C@H](NC(=O)CC[C@@H](C)CC)C(C)C)[C@@H](C)O)C(C)C)C(C)C)[C@@H](C)CC)[C@@H](C)OC(=O)[C@H](C(C)C)NC1=O [PM02734, (4S)-MeHex-D-Val-L-Thr-L-Val-D-Val-D-Pro-L-Orn-D-allo-Ile-cyclo(D-allo-Thr-D-allo-Ile-D-Val-L-Phe-Z-Dhb-L-Val)]",IC50,"[1]; U87-MG, 72 hours drug exposure, MTT",4080 nM
same,IC50,"[2]; SK-MEL-2, 72 hours drug exposure, MTT",1760 nM
same,IC50,"[3]; IGROV-1, 72 hours drug exposure, MTT",333 nM
same,IC50,"[4]; RXF-393, 72 hours drug exposure, MTT",5000 nM
same,IC50,[5]; 72 h,2800 nM
same,IC50,"[6]; HT-29, 72 hours drug exposure, MTT",214 nM
same,EC50,"[7]; U-937 tumor cell line, single agent",6850 nM
same,EC50,"[8]; RAMOS, 72 hours exposure, MTT",13600 nM
same,IC50,"[9]; PANC-1, 72 hours drug exposure, MTT",9000 nM
same,IC50,"[10]; HGC-27, 72 hours drug exposure, MTT",950 nM
same,IC50,[11]; 72 h,540 nM
same,EC50,"[12]; JURKAT, 72 hours exposure, MTT",5500 nM
same,EC50,"[13]; MOLT-4, 72 hours exposure, MTT",14400 nM
same,IC50,"[14]; A673, 72 hours drug exposure, MTT",3600 nM
"Nc1ccn([C@@H]2O[C@H](CO)[C@@H](O)C2(F)F)c(=O)n1 [Gemcitabine, gemcitabine]",IC50,[15],0.28 nM
same,IC50,"[1]; Homo sapiens, U-87 MG, 72 h",450 nM
same,IC50,"[3]; Homo sapiens, IGROV-1, 72 h",6.34 nM
same,IC50,"[4]; Homo sapiens, RXF 393, 72 h",500 nM
same,IC50,"[5]; Homo sapiens, MDA-MB-231, 72 h",8.5 nM
same,IC50,[16],5.34 nM
same,IC50,"[6]; Homo sapiens, HT-29, 72 h",400 nM
same,EC50,"[7]; Homo sapiens, U-937, 72 h",32.7 nM
same,EC50,"[8]; Homo sapiens, Ramos, 72 h",25.1 nM
same,IC50,"[9]; Homo sapiens, PANC-1, 72 h",1000 nM
same,% T/C on day 0,[17]; [18],102.3%
same,% T/C on day 3,[17]; [18],85.5%
same,% T/C on day 6,[17]; [18],70.3%
same,% T/C on day 8,[17]; [18],70.5%
same,% T/C on day 10,[17]; [18],63.3%
same,% T/C on day 13,[17]; [18],64.8%
same,% T/C on day 15,[17]; [18],63.1%
same,% T/C on day 17,[17]; [18],58.5%
same,% T/C on day 20,[17]; [18],58.7%
same,% T/C on day 22,[17]; [18],57.3%
same,% T/C on day 24,[17]; [18],65.2%
same,% T/C on day 28,[17]; [18],59.3%
same,% T/C on day 0,[17]; [19],103.8%
same,% T/C on day 3,[17]; [19],70.0%
same,% T/C on day 6,[17]; [19],73.8%
same,% T/C on day 8,[17]; [19],63.3%
same,% T/C on day 10,[17]; [19],55.6%
same,% T/C on day 13,[17]; [19],54.8%
same,% T/C on day 15,[17]; [19],49.9%
same,% T/C on day 20,[17]; [19],47.6%
same,% T/C on day 22,[17]; [19],47.0%
same,% T/C on day 24,[17]; [19],45.9%
same,% T/C on day 28,[17]; [19],49.2%
same,% T/C on day 0,[17]; [20],102.3%
same,% T/C on day 3,[17]; [20],78.3%
same,% T/C on day 6,[17]; [20],71.9%
same,% T/C on day 8,[17]; [20],63.7%
same,% T/C on day 10,[17]; [20],55.4%
same,% T/C on day 13,[17]; [20],52.7%
same,% T/C on day 15,[17]; [20],54.8%
same,% T/C on day 17,[17]; [20],51.2%
same,% T/C on day 20,[17]; [20],49.5%
same,% T/C on day 22,[17]; [20],48.7%
same,% T/C on day 24,[17]; [20],49.8%
same,% T/C on day 28,[17]; [20],49.5%
same,% T/C on day 0,[17]; [21],102.2%
same,% T/C on day 3,[17]; [21],84.1%
same,% T/C on day 6,[17]; [21],73.9%
same,% T/C on day 8,[17]; [21],66.1%
same,% T/C on day 10,[17]; [21],60.9%
same,% T/C on day 13,[17]; [21],59.4%
same,% T/C on day 15,[17]; [21],58.5%
same,% T/C on day 17,[17]; [21],52.1%
same,% T/C on day 20,[17]; [21],49.1%
same,% T/C on day 22,[17]; [21],48.6%
same,% T/C on day 24,[17]; [21],46.9%
same,% T/C on day 28,[17]; [21],39.3%
same,IC50,"[10]; Homo sapiens, HGC-27, 72 h",0.534 nM
same,IC50,"[11]; Homo sapiens, PC-3, 72 h",400 nM
same,IC50,"[14]; Homo sapiens, A673, 72 h",0.434 nM
COc1c(C)cc2c(c1O)[C@@H]1[C@@H]3Cc4c(OC(C)=O)c(C)c5c(c4[C@H](CNC(=O)/C=C/c4cccc(C(F)(F)F)c4)N3[C@@H](O)[C@H](C2)N1C)OCO5 [PM00104],IC50,[15],7 nM
same,IC50,"[2]; Homo sapiens, SK-MEL-2, 72 h",2 nM
same,IC50,"[3]; Homo sapiens, IGROV-1, 72 h",3.3 nM
same,IC50,"[4]; Homo sapiens, RXF 393, 72 h",5.4 nM
same,IC50,"[5]; Homo sapiens, MDA-MB-231, 72 h",1 nM
same,IC50,[16],3 nM
same,EC50,"[7]; Homo sapiens, U-937, 72 h",4.5 nM
same,EC50,"[8]; Homo sapiens, Ramos, 72 h",4.35 nM
same,IC50,"[9]; Homo sapiens, PANC-1, 72 h",7.89 nM
same,IC50,"[10]; Homo sapiens, HGC-27, 72 h",3.2 nM
same,IC50,"[11]; Homo sapiens, PC-3, 72 h",7.1 nM
same,EC50,"[12]; Homo sapiens, Jurkat, 72 h",4.83 nM
same,EC50,"[13]; Homo sapiens, MOLT-4, 72 h",1.55 nM
same,IC50,"[14]; Homo sapiens, A673, 72 h",3 nM
